# Patent publication US20250082656A1, “DOSAGE REGIMENS FOR TREATMENT OF DENGUE INFECTION” (Atea Pharmaceuticals, Inc., priority 2022, published 2025)
# Key:
# [1] = Pharmacokinetic study in SAD cohorts; assay type: in vivo, human; settings: for dose proportionality of plasma exposure: dose range 250 to 1500 mg; for Urine Elimination: following single oral administration of Compound 2 at 250 to 1500 mg; for AUCInf / Cmax / T1/2 / Tmax / AUC(0-inf) / half-life: human plasma; for CL renal: plasma and urine
# Experimental: Pharmacokinetic measurements for FIGS. 11, 12, 13, 14, and 15 were analyzed using LC-MS/MS according to the protocol described herein. Plasma samples were prepared for MS analysis by adding internal standards and extracting with 20 volumes chilled ACN. After vortex (800 rpm for 10 min) and centrifugation (4,000 rpm, 15 min, 4° C.), the supernatants (25 μL) were diluted with an equal volume of H2O, mixed and spun again. After adding internal standards, the PBMC samples (10^6 cells) were lyzed with 300 μL MeOH/H2O (70:30, v/v) and 40 mM dibutylammonium acetate (DBAA), mixed by vortex and centrifuged (12,000 rpm, 15 min, 4° C.). Aliquots of the supernatants (35 μL) were dried under nitrogen and reconstituted in H2O, then mixed and spun again. […] A binary nonlinear gradient with mobile phases A (0.1% formic acid in water) and B (0.1% formic acid in ACN) were used to elute samples at 0.8 mL/min, with a run time of 5 min. […] A binary nonlinear gradient with mobile phases A (0.001% NHr H2O, 0.18 mM DBAA in H2O) and B (10 mM N,N-dimethyl-hexylamine, 3 mM NH4OAc in ACN/H2O (50.50, v/v)) were used to elute samples at 0.5 mL/min, with a run time of 3 min. Standards in 50% MeOH were used for calibration. […] Internal standards (ISS) as described previously (Good et al., Preclinical evaluation of AT-527, a novel guanosine nucleotide prodrug with potent, pan-genotypic activity against hepatitis C virus. PLos One 15:e02271045) were used to correct for variations in recovery.
# Data analysis of the pharmacokinetic data generated according to Example 21 and presented in FIGS. 11, 12, 13, 14, and 15 was analyzed according to the procedure described herein. Plasma concentrations of Compound 1 (AT-281), Compound 3 (AT-551) and Compound 6 (AT-273) were subjected to non-compartmental pharmacokinetic analysis using Phoenix WinNonlin software (version 6.3 or above, Pharsight, Mountain View, CA). The linear/log trapezoidal rule was applied in obtaining the PK parameters.
# [2] = Plasma PK after single oral dose of AT-752, mice; settings: Mouse, single oral AT-752 420 mg/kg
# Influenza A and B = assay: Antiviral specificity panel, Influenza A and B; assay type: cell-based; settings: Influenza A virus; RNA virus, MDCK
# [3] = Cytotoxicity in MDCK cells; assay type: cell-based; settings: dog, Table 2, MDCK
# Experimental: To assess the antiviral specificity of Compound 1 (AT-281), serial dilutions were incubated with various host cell lines infected with a panel of DNA and RNA viruses other than flaviviruses. The activity of Compound 1 (AT-281) was measured in infected cells using the neutral red assay to determine the effective concentration required to inhibit viral replication 50% (EC50) (described in Example 3) and the threshold concentration required to obtain a perceptible effect on 50% of the cells incubated without virus (CC50). Compound 1 (AT-281) had no activity against the DNA viruses tested and was only weakly or not active against several RNA viruses (Table 2).
# DENV-1 = assay: microbe, parasite or virus in culture; settings: Dengue virus, DENV1, Huh-7
# [4] = Cardiomyocyte cytotoxicity assay (CellTiter Glo); settings: human, human iPS cardiomyocytes
# DENV2 NS5MTase protein = DENV2 NS5MTase protein (Dengue virus type 2, UniProt P14340); assay: MTase activity filter-binding assay (FBA); assay type: biochemical; settings: 30° C., 30 min, read-out: IC50 against the MTase domain
# DENV2 NS5MTase protein, sequence (P14340 2492-2787 limits assumed): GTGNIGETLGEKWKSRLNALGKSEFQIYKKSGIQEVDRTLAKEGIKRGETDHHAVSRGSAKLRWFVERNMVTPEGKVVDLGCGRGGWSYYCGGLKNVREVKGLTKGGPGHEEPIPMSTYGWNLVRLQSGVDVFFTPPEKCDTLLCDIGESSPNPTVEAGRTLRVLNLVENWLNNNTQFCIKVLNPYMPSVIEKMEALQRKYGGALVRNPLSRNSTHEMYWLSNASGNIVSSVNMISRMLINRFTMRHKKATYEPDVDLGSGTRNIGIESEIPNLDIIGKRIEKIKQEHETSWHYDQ
# Experimental: A) Dose-response determination using a filter binding assay (FBA). Reactions were incubated at 30° C. during 30 min and the enzymatic activity was determined using FBA as described in Example 33. […] Interacting residues are labelled and shown as sticks. E) Structural comparison of the position of a GTP (pink) and AT9010 (light brown) bound in the Cap binding site. Cap binding site structures belong to DENV2 (in pink—PDB 2P1D)) and DENV3 (in light brown) MTases and are conserved.
# The transfer of tritiated methyl from [3H]-SAM onto RNA substrate was monitored by filter-binding assay (FBA), performed according to the method described previously (Paesen et al., 2015). […] FBA was carried out in reaction mixture [40 mM Tris-HCl (pH 8.0), 1 mM DTT, 2 μM SAM and 0.1 μM 3H-SAM (Perkin Elmer)] in the presence of 0.7 μM mGpppAC4 synthetic RNA and DENV2 NS5MTase protein (500 nM). The enzyme was first mixed with the compound (0.5 to 1000 μM) suspended in water before the addition of RNA substrate and SAM and then incubated at 30° C. Reaction mixtures were stopped after 30 min by their 10-fold dilution in ice-cold water. […] They were soaked with scintillation fluid (Perkin Elmer), and 3H-methyl transfer to the RNA substrates was determined using a Wallac MicroBeta TriLux Liquid Scintillation Counter (Perkin Elmer). […]
# DENV1 RdRp domain = assay: Thermal shift assay, DENV1 RdRp domain; settings: RdRp domain DENV1, 100 μM compound
# [5] = single oral Compound 2 250 mg, fasting
# [6] = single oral Compound 2 500 mg, fasting
# [7] = single oral Compound 2 500 mg, fed
# [8] = single oral Compound 2 1000 mg, South/Southeast/East Asian origin
# [9] = single oral Compound 2 1000 mg, fasting
# [10] = single oral Compound 2 1500 mg, fasting
# [11] = both sexes, human, plasma, po, 250 mg, single oral Compound 2 250 mg, fasting
# [12] = both sexes, human, plasma, po, 500 mg, single oral Compound 2 500 mg, fasting
# [13] = both sexes, human, plasma, po, 500 mg, single oral Compound 2 500 mg, fed
# [14] = both sexes, human, plasma, po, 1000 mg, single oral Compound 2 1000 mg, South/Southeast/East Asian origin
# [15] = both sexes, human, plasma, po, 1000 mg, single oral Compound 2 1000 mg, fasting
# [16] = both sexes, human, plasma, po, 1500 mg, single oral Compound 2 1500 mg, fasting
smiles,measurement,setting,value
"C[C@@]1(F)[C@H](O)[C@@H](CO)O[C@H]1n1cnc2c(=O)[nH]c(N)nc21 [Compound 6, 2′-fluoro-2′-C-methylguanosine]",dose proportionality of plasma exposure,[1],slightly less than dose-proportional
same,Urine Elimination,[1],6.7-8.8%
same,AUCInf,[1]; [5],1440 ± 280 ng·h/mL
same,Cmax,[1]; [5],91 ± 19 ng/mL
same,T1/2,[1]; [5],1150 ± 612 min
same,Tmax,[1]; [5],6.0 (3.0-6.0) h
same,AUCInf,[1]; [6],2390 ± 478 ng·h/mL
same,Cmax,[1]; [6],135 ± 25 ng/mL
same,T1/2,[1]; [6],834 ± 354 min
same,Tmax,[1]; [6],4.0 (3.0-8.0) h
same,AUCInf,[1]; [7],2990 ± 558 ng·h/mL
same,T1/2,[1]; [7],1040 ± 660 min
same,Tmax,[1]; [7],6.0 (6.0-8.1) h
same,Cmax,"[1]; single oral Compound 2 500 mg, fed (high-fat/high-calorie meal)",175 ± 29 ng/mL
same,AUCInf,[1]; [8],3830 ± 519 ng·h/mL
same,T1/2,[1]; [8],978 ± 180 min
same,Tmax,[1]; [8],5.0 (3.1-6.0) h
same,AUCInf,[1]; [9],4350 ± 1520 ng·h/mL
same,Cmax,[1]; [9],241 ± 71 ng/mL
same,T1/2,[1]; [9],1570 ± 732 min
same,Tmax,[1]; [9],4.1 (4.0-6.3) h
same,Cmax,"[1]; single oral Compound 2 1000 mg, patients of South/Southeast/East Asian origin",240 ± 46 ng/mL
same,AUCInf,[1]; [10],5460 ± 1190 ng·h/mL
same,Cmax,[1]; [10],283 ± 32 ng/mL
same,T1/2,[1]; [10],1300 ± 372 min
same,Tmax,[1]; [10],6.0 (3.2-6.1) h
same,CLR,"[1]; human, single oral Compound 2 250 mg, fasting",15.8 ± 2.8 L/h
same,CLR,"[1]; human, single oral Compound 2 500 mg, fasting",16.8 ± 7.6 L/h
same,CLR,"[1]; human, single oral Compound 2 500 mg, fed",13.4 ± 3.3 L/h
same,CLR,"[1]; human, single oral Compound 2 1000 mg, South/Southeast/East Asian origin",18.7 ± 2.1 L/h
same,CLR,"[1]; human, single oral Compound 2 1000 mg, fasting",17.1 ± 6.5 L/h
same,CLR,"[1]; human, single oral Compound 2 1500 mg, fasting",19.5 ± 4.1 L/h
same,AUC0-24 h,[2],18.8 ± 6.0 µM·h
same,Cmax,[2],2300 ± 700 nM
"CNc1nc(N)nc2c1ncn2[C@@H]1O[C@H](CO[P@](=O)(N[C@@H](C)C(=O)OC(C)C)Oc2ccccc2)[C@@H](O)[C@@]1(C)F [Compound 1, isopropyl ((R)-(((2R,3R,4R,5R)-5-(2-amino-6-(methylamino)-9H-purin-9-yl)-4-fluoro-3-hydroxy-4-methyltetrahydrofuran-2-yl)methoxy)(phenoxy)phosphoryl)-L-alaninate]",EC50,Influenza A and B,> 100 µM
same,CC50,[3],> 100 µM
same,CL renal,"[1]; both sexes, human, po, 250 mg, single oral Compound 2 250 mg, fasting",125 mL/min
same,CL renal,"[1]; both sexes, human, po, 500 mg, single oral Compound 2 500 mg, fasting",182 mL/min
same,CL renal,"[1]; both sexes, human, po, 500 mg, single oral Compound 2 500 mg, fed",110 mL/min
same,CL renal,"[1]; both sexes, human, po, 1000 mg, single oral Compound 2 1000 mg, South/Southeast/East Asian origin",162 mL/min
same,CL renal,"[1]; both sexes, human, po, 1000 mg, single oral Compound 2 1000 mg, fasting",190 mL/min
same,CL renal,"[1]; both sexes, human, po, 1500 mg, single oral Compound 2 1500 mg, fasting",138 mL/min
same,AUC(0-inf),[1]; [11],347 ± 64 ng·h/mL
same,half-life,[1]; [11],30 ± 6 min
same,Cmax,"[1]; both sexes, human, plasma, po, 250 mg, single oral Compound 2 250 mg, fasting, read-out: Cmax",482 ± 131 ng/mL
same,Tmax,"[1]; both sexes, human, plasma, po, 250 mg, single oral Compound 2 250 mg, fasting, read-out: Tmax",30 min
same,AUC(0-inf),[1]; [12],1110 ± 687 ng·h/mL
same,half-life,[1]; [12],30 ± 60 min
same,Cmax,"[1]; both sexes, human, plasma, po, 500 mg, single oral Compound 2 500 mg, fasting, read-out: Cmax",1230 ± 1110 ng/mL
same,Tmax,"[1]; both sexes, human, plasma, po, 500 mg, single oral Compound 2 500 mg, fasting, read-out: Tmax",30 min
same,AUC(0-inf),[1]; [13],980 ± 716 ng·h/mL
same,half-life,[1]; [13],42 ± 18 min
same,Cmax,"[1]; both sexes, human, plasma, po, 500 mg, single oral Compound 2 500 mg, fed (high-fat/high-calorie meal), read-out: Cmax",488 ± 303 ng/mL
same,Tmax,"[1]; both sexes, human, plasma, po, 500 mg, single oral Compound 2 500 mg, fed, read-out: Tmax",120 min
same,AUC(0-inf),[1]; [14],2730 ± 944 ng·h/mL
same,half-life,[1]; [14],30 ± 6 min
same,Tmax,"[1]; both sexes, human, plasma, po, 1000 mg, single oral Compound 2 1000 mg, South/Southeast/East Asian origin, read-out: Tmax",30 min
same,AUC(0-inf),[1]; [15],1920 ± 508 ng·h/mL
same,half-life,[1]; [15],30 ± 6 min
same,Cmax,"[1]; both sexes, human, plasma, po, 1000 mg, single oral Compound 2 1000 mg, fasting, read-out: Cmax",3040 ± 960 ng/mL
same,Tmax,"[1]; both sexes, human, plasma, po, 1000 mg, single oral Compound 2 1000 mg, fasting, read-out: Tmax",30 min
same,Cmax,"[1]; both sexes, human, plasma, po, 1000 mg, single oral Compound 2 1000 mg, patients of South/Southeast/East Asian origin, read-out: Cmax",3670 ± 1260 ng/mL
same,AUC(0-inf),[1]; [16],4630 ± 1500 ng·h/mL
same,half-life,[1]; [16],36 ± 12 min
same,Cmax,"[1]; both sexes, human, plasma, po, 1500 mg, single oral Compound 2 1500 mg, fasting, read-out: Cmax",5050 ± 2080 ng/mL
same,Tmax,"[1]; both sexes, human, plasma, po, 1500 mg, single oral Compound 2 1500 mg, fasting, read-out: Tmax",30 min
same,dose proportionality of plasma exposure,[1],greater than dose-proportional manner
same,Urine Elimination,[1],< 3%
same,EC50,DENV-1,0.57 µM
same,CC50 at 3 days,[4],> 100 µM
same,AUC0-24 h,[2],4.2 ± 0.5 µM·h
same,Cmax,[2],2600 ± 300 nM
same,Tmax,[2],48 ± 18 min
C[C@@]1(F)[C@H](O)[C@@H](COP(=O)(O)OP(=O)(O)OP(=O)(O)O)O[C@H]1n1cnc2c(=O)[nH]c(N)nc21 [Compound 5],IC50,DENV2 NS5MTase protein,29.6 µM
same,ΔTM,DENV1 RdRp domain,5.6±0.1 °C
